Experimental findings from patent US20240139151A1, “COMPOSITION INCLUDING DECURSINOL AS ACTIVE INGREDIENT FOR PREVENTING OR TREATING SMOOTH MUSCLE CELL PROLIFERATIVE DISEASES” (KYUNGSUNG UNIVERSITY INDUSTRY COOPERATION FOUNDATION, priority 2021, published 2024) are described below.

The nature of one data set: in vitro. As to conditions: rat, IC50, concentration at which the growth of the cells is inhibited by 50% (cytotoxicity).
Data set [1] concerns vascular smooth cell line A10. The data set is described as follows: Inhibition of high glucose-induced proliferation of A10 cells (EC100). The conditions noted are these: 30 mM D-glucose, 0-500 μM. The format is cell-based.
Protocol: (§1) The vascular smooth cell line A10 was loaded at a density of 1×10^3 cells/ml into 96-well plates and after 16 hours, the medium was replaced with a medium having a concentration of 5.5 mM or 30 mM D-glucose. Subsequently, decursin, decursinol angelate and decursinol were each applied at concentrations of 0, 20, 50, 100, 200, and 500 μM to the cells. IC50, a concentration at which the growth of the cells is inhibited by 50%, and EC100, a concentration which inhibits the growth of cells in a high sugar level environment to a normal cell population, were measured, and therapeutic indices were calculated by dividing IC50 by EC100. […] Then, effects of decursin and decursinol angelate to inhibit the proliferation of A10 cells in high glucose were expressed as EC100. EC100 refers to the concentration at which high glucose-induced proliferation of A10 cells is inhibited to normal glucose levels by the drug.
In data set [2] the test system is vascular smooth cell line A10. The conditions noted are these: rat.
Protocol: as §1
A short description of data set [3]: Blood pressure safety test in rats after two weeks of oral administration. The format is in vivo. The conditions noted are these: measured the day after final administration. The text has this:
The present inventors have been studying Angelica gigas Nakai for many years while observing the effect of Angelica gigas Nakai extract on blood pressure. In general, Angelica gigas Nakai is a traditional herb that has been used for food and medicine for a long time because of its excellent hematopoietic, anticancer, antioxidant, and anti-inflammatory actions. However, direct use of the Angelica gigas extract has the problem of inducing high blood pressure according to the preparation thereof. In this Example, the Angelica extracts obtained in Examples 1-1 and 1-2 and 99.9% pure decursinol of the present disclosure were administered to rats and assayed for safety for blood pressure.
Using a blood pressure analyzer (3R229 3 channel rat system, Life Science), rats were measured for blood pressure while being acclimated to blood measurement operation. When the blood pressure analyzer is being operated, laboratory rats are startled by the sound of air pressure and rise in blood pressure. In order to eliminate this effect, after adaptation by repeatedly measuring 5 times a day, the experiment was performed when the blood pressure was kept stable, and the blood pressure was regularly measured every day even during the experiment to adapt the rats to the analyzer. When measuring blood pressure, the head was covered with a handkerchief to block light for stabilization. Fifteen experimental rats were divided into 5 groups of 3 rats for the next administration experiment and measured for blood pressure. A control (physiological saline), the Angelica extracts, and decursinol were each orally administered for two weeks, and the blood pressures measured the next day after the final administration are given in Table 1.

Data set [4] concerns vascular smooth muscle cell line A10. Kind of data set: Effect of decursinol on high sugar-induced proliferation of A10 cells (cell count). The format is cell-based. As to the method:
The effect of decursinol on the high sugar-induced proliferation of A10 cells was investigated. […] Then, each well was treated with 25 μM of solubilized decursinol, and the cells were counted after 1, 2, and 3 days. The results are depicted in FIG. 4.

Data set [5] has the same test system. The data set is described as follows: Cytotoxicity of decursinol, live and dead cell count. The format is cell-based. As to conditions: live and dead cells counted. The source says: In order to examine the cytotoxicity of decursinol, both live and dead cells were counted. After treatment with decursinol, 98% or more of live cells were observed alive.
The test system of data set [6] is phospho-protein kinase C (p-PKC). Kind of data set: Western blotting of phospho-PKC with a pan-phospho-PKC antibody in A10 cells. The format is cell-based. The conditions noted are these: 30 mM D-glucose, 10 and 25 μM solubilized decursinol, 24 hours. As to the method: Examination was made to see whether the inhibitory effect of decursinol on high sugar-induced proliferation of A10 cells was associated with PKC. […] Then, each well was treated with 10 and 25 μM of solubilized decursinol and incubated for 24 hours. Western blotting was carried out using a pan-phospho-PKC antibody and the results are depicted in FIG. 5.

The nature of data set [7]: Cytotoxicity (IC50) on A10 cells. As to conditions: rat, A10 vascular smooth muscle cells, IC50, concentration at which the growth of the cells is inhibited by 50% (cytotoxicity), 0-500 μM, cytotoxicity under normal glucose conditions.
Protocol: as §1

Entries after “also recorded” stand apart in the source; their conditions may differ. Where only a bound is given, the exact number is not on record here.

Protocol for in vitro: as §1

For the compound `CC(C)=CC(=O)O[C@H]1Cc2cc3ccc(=O)oc3cc2OC1(C)C` [Decursin, decursin], in the data set “in vitro”, the IC50 is 82.7 µM. Also, in data set [1], the “EC100, concentration at which high glucose-induced proliferation of A10 cells is inhibited to normal glucose levels” value is 7.2 µM.

As for `CC1(C)Oc2cc3oc(=O)ccc3cc2C[C@@H]1O` [Decursinol, decursinol], the IC50 was over 500 µM in data set [2] and at least 500 µM in “in vitro”. In addition, the Diastolic blood pressure stood at 91 mmHg in data set [3] (0.5 mg/kg), 92 mmHg in data set [3] (1.0 mg/kg), 92 mmHg in data set [3] (2.0 mg/kg) and 90 mmHg in data set [3] (5.0 mg/kg). Moreover, the Systolic blood pressure was 110 mmHg in data set [3] (0.5 mg/kg), 110 mmHg in data set [3] (1.0 mg/kg), 117 mmHg in data set [3] (2.0 mg/kg) and 115 mmHg in data set [3] (5.0 mg/kg). Also, in data set [4] (5.5 mM D-glucose, 25 μM solubilized decursinol, days 1-3), the “Effect on proliferation of A10 cells at normal sugar concentration” value is listed as “did not significantly inhibit; also recorded: not affected”. Moreover, the “Effect on proliferation of A10 cells in high glucose” value in data set [4] (30 mM D-glucose) is “significantly inhibited; also recorded: inhibited cell proliferation in a dose-dependent manner”. In addition, the “Inhibition of proliferation of A10 cells in high glucose” value in data set [4] (30 mM D-glucose, 25 μM solubilized decursinol, day 3) is “about 20%”. The “Live cells after treatment with decursinol” value in data set [5] is given as at least 98%. Further, the “EC100, concentration at which high glucose-induced proliferation of A10 cells is inhibited to normal glucose levels” value in data set [1] amounted to 10.1 µM. The “Expression level of phospho-PKC in high sugar” value in data set [6] is reported as “significantly decreased the increased expression level of phospho-PKC in high sugar in a dose-dependent manner”.

With `C/C=C(/C)C(=O)O[C@H]1Cc2cc3ccc(=O)oc3cc2OC1(C)C` [Decursinol angelate, decursinol angelate], in data set [1], the “EC100, concentration at which high glucose-induced proliferation of A10 cells is inhibited to normal glucose levels” value came out at 4.4 µM. Besides, inhibition in data set [7] was half-maximal at 124 µM (IC50).
